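48-hour exposure; five concentrations; linearly interpolated endpoints. TGI: concentration producing complete growth inhibition.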
How the values were obtained:
Experiment in all cases: NCI anticancer screen, dose series, 48 h
SK-MEL-2 melanoma = tested on: SK-MEL-2 melanoma
SF-295 CNS = tested on: SF-295 CNS
SF-268 CNS = tested on: SF-268 CNS
SK-OV-3 ovarian = tested on: SK-OV-3 ovarian
OVCAR-4 ovarian = tested on: OVCAR-4 ovarian
OVCAR-8 ovarian = tested on: OVCAR-8 ovarian
SK-MEL-5 melanoma = tested on: SK-MEL-5 melanoma
COLO 205 colon = tested on: COLO 205 colon
KM20L2 colon = tested on: KM20L2 colon
NCI-H522 lung = tested on: NCI-H522 lung
SN12C renal = tested on: SN12C renal
NCI/ADR-RES ovarian = tested on: NCI/ADR-RES ovarian
UACC-257 melanoma = tested on: UACC-257 melanoma
TK-10 renal = tested on: TK-10 renal
M19-MEL melanoma = tested on: M19-MEL melanoma
M14 melanoma = tested on: M14 melanoma
IGROV1 ovarian = tested on: IGROV1 ovarian
RPMI-8226 leukemia = tested on: RPMI-8226 leukemia
NCI-H226 lung = tested on: NCI-H226 lung
UACC-62 melanoma = tested on: UACC-62 melanoma
MOLT-4 leukemia = tested on: MOLT-4 leukemia
HCC-2998 colon = tested on: HCC-2998 colon
SNB-75 CNS = tested on: SNB-75 CNS
NCI-H460 lung = tested on: NCI-H460 lung
LOX IMVI melanoma = tested on: LOX IMVI melanoma
PC-3 prostate = tested on: PC-3 prostate
NCI-H23 lung = tested on: NCI-H23 lung
CCRF-CEM leukemia = tested on: CCRF-CEM leukemia
DLD-1 colon = tested on: DLD-1 colon
SK-MEL-28 melanoma = tested on: SK-MEL-28 melanoma
KM12 colon = tested on: KM12 colon
HCT-15 colon = tested on: HCT-15 colon
OVCAR-3 ovarian = tested on: OVCAR-3 ovarian
SNB-19 CNS = tested on: SNB-19 CNS
MCF7 breast = tested on: MCF7 breast
HT29 colon = tested on: HT29 colon
MDA-MB-231 breast = tested on: MDA-MB-231 breast
ACHN renal = tested on: ACHN renal
CAKI-1 renal = tested on: CAKI-1 renal
HL-60(TB) leukemia = tested on: HL-60(TB) leukemia
DMS 114 small cell lung = tested on: DMS 114 small cell lung
MDA-MB-435 = tested on: MDA-MB-435
RXF 393 renal = tested on: RXF 393 renal
786-0 renal = tested on: 786-0 renal
A498 renal = tested on: A498 renal
SW-620 colon = tested on: SW-620 colon
OVCAR-5 ovarian = tested on: OVCAR-5 ovarian
EKVX NSCLC = tested on: EKVX NSCLC
MALME-3M melanoma = tested on: MALME-3M melanoma
SR leukemia = tested on: SR leukemia
LXFL 529 NSCLC = tested on: LXFL 529 NSCLC
RXF-631 renal = tested on: RXF-631 renal
BT-549 breast = tested on: BT-549 breast
T-47D breast = tested on: T-47D breast
HOP-18 NSCLC = tested on: HOP-18 NSCLC
A549 NSCLC = tested on: A549 NSCLC
HCT-116 colon = tested on: HCT-116 colon
DU-145 prostate = tested on: DU-145 prostate
DMS 273 small cell lung = tested on: DMS 273 small cell lung
HOP-92 NSCLC = tested on: HOP-92 NSCLC
MDA-N = tested on: MDA-N
UO-31 renal = tested on: UO-31 renal
HOP-62 NSCLC = tested on: HOP-62 NSCLC
SF-539 CNS = tested on: SF-539 CNS
HS 578T breast = tested on: HS 578T breast
U251 CNS = tested on: U251 CNS
K-562 leukemia = tested on: K-562 leukemia
SNB-78 CNS = tested on: SNB-78 CNS

SMILES: CN1CCN(Cc2nc3cccc4c3c([n+]2[O-])-c2ccccc2-4)CC1
- TGI (SK-MEL-2 melanoma): > 54.3 µM
- TGI (SF-295 CNS): > 100 µM
- TGI (SF-268 CNS): > 66.5 µM
- TGI (SK-OV-3 ovarian): > 100 µM
- TGI (OVCAR-4 ovarian): > 84.4 µM
- TGI (OVCAR-8 ovarian): 37.3 µM
- TGI (SK-MEL-5 melanoma): 49.9 µM
- TGI (COLO 205 colon): > 59.7 µM
- TGI (KM20L2 colon): > 100 µM
- TGI (NCI-H522 lung): > 48.5 µM
- TGI (SN12C renal): > 100 µM
- TGI (NCI/ADR-RES ovarian): 48.3 µM
- TGI (UACC-257 melanoma): > 64.1 µM
- TGI (TK-10 renal): > 100 µM
- TGI (M19-MEL melanoma): > 100 µM
- TGI (M14 melanoma): > 61.1 µM
- TGI (IGROV1 ovarian): > 84.2 µM
- TGI (RPMI-8226 leukemia): > 74.4 µM
- TGI (NCI-H226 lung): > 68.1 µM
- TGI (UACC-62 melanoma): > 56.4 µM
- TGI (MOLT-4 leukemia): > 69.4 µM
- TGI (HCC-2998 colon): > 100 µM
- TGI (SNB-75 CNS): 66.6 µM
- TGI (NCI-H460 lung): > 100 µM
- TGI (LOX IMVI melanoma): > 51.5 µM
- TGI (PC-3 prostate): 48.6 µM
- TGI (NCI-H23 lung): > 61.7 µM
- TGI (CCRF-CEM leukemia): > 82.8 µM
- TGI (DLD-1 colon): > 100 µM
- TGI (SK-MEL-28 melanoma): > 62.6 µM
- TGI (KM12 colon): > 66 µM
- TGI (HCT-15 colon): > 100 µM
- TGI (OVCAR-3 ovarian): > 100 µM
- TGI (SNB-19 CNS): > 100 µM
- TGI (MCF7 breast): 84.9 µM
- TGI (HT29 colon): > 61.1 µM
- TGI (MDA-MB-231 breast): 44.3 µM
- TGI (ACHN renal): > 68.7 µM
- TGI (CAKI-1 renal): 96.9 µM
- TGI (HL-60(TB) leukemia): > 100 µM
- TGI (DMS 114 small cell lung): > 100 µM
- TGI (MDA-MB-435): 34 µM
- TGI (RXF 393 renal): 25.9 µM
- TGI (786-0 renal): > 100 µM
- TGI (A498 renal): > 53.1 µM
- TGI (SW-620 colon): > 100 µM
- TGI (OVCAR-5 ovarian): > 100 µM
- TGI (EKVX NSCLC): > 100 µM
- TGI (MALME-3M melanoma): > 50.2 µM
- TGI (SR leukemia): 31.8 µM
- TGI (LXFL 529 NSCLC): > 100 µM
- TGI (RXF-631 renal): > 100 µM
- TGI (BT-549 breast): > 100 µM
- TGI (T-47D breast): 76.9 µM
- TGI (HOP-18 NSCLC): > 100 µM
- TGI (A549 NSCLC): > 51.3 µM
- TGI (HCT-116 colon): > 100 µM
- TGI (DU-145 prostate): 32.1 µM
- TGI (DMS 273 small cell lung): > 100 µM
- TGI (HOP-92 NSCLC): > 73.7 µM
- TGI (MDA-N): > 100 µM
- TGI (UO-31 renal): 66.4 µM
- TGI (HOP-62 NSCLC): > 100 µM
- TGI (SF-539 CNS): > 88 µM
- TGI (HS 578T breast): 97.1 µM
- TGI (U251 CNS): > 64 µM
- TGI (K-562 leukemia): > 100 µM
- TGI (SNB-78 CNS): > 100 µM

SMILES: O=C1C2=C(C(c3ccccc3)=C1c1ccccc1)c1ccccc1C1(c3ccccc3)C2=C(O)C(c2ccccc2)=C1c1ccccc1 (stereo not drawn)
- TGI (SK-MEL-2 melanoma): > 100 µM
- TGI (SF-295 CNS): > 100 µM
- TGI (SF-268 CNS): > 100 µM
- TGI (SK-OV-3 ovarian): > 100 µM
- TGI (OVCAR-4 ovarian): > 100 µM
- TGI (OVCAR-8 ovarian): > 100 µM
- TGI (SK-MEL-5 melanoma): > 100 µM
- TGI (COLO 205 colon): > 100 µM
- TGI (KM20L2 colon): > 100 µM
- TGI (NCI-H522 lung): > 100 µM
- TGI (SN12C renal): > 100 µM
- TGI (UACC-257 melanoma): > 100 µM
- TGI (TK-10 renal): > 100 µM
- TGI (M19-MEL melanoma): > 100 µM
- TGI (M14 melanoma): > 100 µM
- TGI (IGROV1 ovarian): > 100 µM
- TGI (RPMI-8226 leukemia): > 100 µM
- TGI (NCI-H226 lung): > 100 µM
- TGI (UACC-62 melanoma): > 100 µM
- TGI (MOLT-4 leukemia): > 100 µM
- TGI (HCC-2998 colon): > 100 µM
- TGI (SNB-75 CNS): > 100 µM
- TGI (NCI-H460 lung): > 100 µM
- TGI (LOX IMVI melanoma): > 100 µM
- TGI (NCI-H23 lung): > 100 µM
- TGI (DLD-1 colon): > 100 µM
- TGI (SK-MEL-28 melanoma): > 100 µM
- TGI (KM12 colon): > 100 µM
- TGI (HCT-15 colon): > 100 µM
- TGI (OVCAR-3 ovarian): > 100 µM
- TGI (HT29 colon): > 100 µM
- TGI (ACHN renal): > 100 µM
- TGI (CAKI-1 renal): > 100 µM
- TGI (HL-60(TB) leukemia): > 100 µM
- TGI (DMS 114 small cell lung): > 100 µM
- TGI (RXF 393 renal): > 100 µM
- TGI (786-0 renal): > 100 µM
- TGI (A498 renal): > 100 µM
- TGI (SW-620 colon): > 100 µM
- TGI (OVCAR-5 ovarian): > 100 µM
- TGI (EKVX NSCLC): > 100 µM
- TGI (MALME-3M melanoma): > 100 µM
- TGI (SR leukemia): > 100 µM
- TGI (LXFL 529 NSCLC): > 100 µM
- TGI (RXF-631 renal): > 100 µM
- TGI (HOP-18 NSCLC): > 100 µM
- TGI (A549 NSCLC): > 100 µM
- TGI (HCT-116 colon): > 100 µM
- TGI (DMS 273 small cell lung): > 100 µM
- TGI (HOP-92 NSCLC): > 100 µM
- TGI (UO-31 renal): > 100 µM
- TGI (HOP-62 NSCLC): > 100 µM
- TGI (SF-539 CNS): > 100 µM
- TGI (U251 CNS): > 100 µM
- TGI (SNB-78 CNS): > 100 µM
